Measurements published in patent US7528141B2, “Use of cyclopenta[g]quinazoline derivatives for treating cancer” (BTG International Limited, priority 2001, dated 2009).
Values joined by “and” are separate entries in the source; they are usually repeats but may differ in a detail not shown here. Identical values can stand only once. Like-named read-outs stand apart in the source and are kept apart here.

Tests used:
[1] = target: T1, thymidylate synthase (TS) from L1210 mouse leukaemia cells (Mus musculus, UniProt P07607); experiment: Inhibition of isolated L1210 thymidylate synthase; format: biochemical
T1 construct: obtained in partially purified form from L1210 mouse leukaemia cells; endogenous in cells; host or cells: L1210 mouse leukaemia cells (enzyme partially purified)

[2] = target: T2, reduced-folate carrier (RFC) (Mus musculus, UniProt P41438); experiment: Inhibition of 3H MTX uptake in L1210 cells; format: cell-based; conditions: Inhibition of 3H MTX uptake Ki, L1210, mouse L1210 tumor cells; high Ki = low affinity for RFC
T2 construct: endogenous in cells; host or cells: L1210
T2 sequence (P41438 1-512): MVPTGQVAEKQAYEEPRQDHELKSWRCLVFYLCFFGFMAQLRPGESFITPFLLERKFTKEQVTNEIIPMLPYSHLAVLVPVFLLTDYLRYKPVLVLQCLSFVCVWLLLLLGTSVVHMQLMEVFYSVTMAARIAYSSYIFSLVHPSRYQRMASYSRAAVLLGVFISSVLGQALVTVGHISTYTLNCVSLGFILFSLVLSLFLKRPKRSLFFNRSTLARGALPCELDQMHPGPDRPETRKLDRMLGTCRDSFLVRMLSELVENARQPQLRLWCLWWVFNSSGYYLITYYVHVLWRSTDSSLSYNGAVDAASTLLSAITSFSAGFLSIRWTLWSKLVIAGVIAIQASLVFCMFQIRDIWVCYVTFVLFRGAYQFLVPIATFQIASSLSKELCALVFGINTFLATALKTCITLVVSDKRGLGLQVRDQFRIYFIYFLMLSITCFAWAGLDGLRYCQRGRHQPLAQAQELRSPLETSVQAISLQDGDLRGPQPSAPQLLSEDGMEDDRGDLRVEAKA

[3] = target: T3, reduced-folate carrier (RFC) (Homo sapiens, UniProt P41440); experiment: Inhibition of 3H MTX uptake in W1L2 cells; format: cell-based; conditions: Inhibition of 3H MTX uptake Ki, W1L2, human lymphoblastoid W1L2 cells; high Ki = low affinity for RFC
T3 construct: endogenous in cells; host or cells: W1L2
T3 sequence (P41440 1-591): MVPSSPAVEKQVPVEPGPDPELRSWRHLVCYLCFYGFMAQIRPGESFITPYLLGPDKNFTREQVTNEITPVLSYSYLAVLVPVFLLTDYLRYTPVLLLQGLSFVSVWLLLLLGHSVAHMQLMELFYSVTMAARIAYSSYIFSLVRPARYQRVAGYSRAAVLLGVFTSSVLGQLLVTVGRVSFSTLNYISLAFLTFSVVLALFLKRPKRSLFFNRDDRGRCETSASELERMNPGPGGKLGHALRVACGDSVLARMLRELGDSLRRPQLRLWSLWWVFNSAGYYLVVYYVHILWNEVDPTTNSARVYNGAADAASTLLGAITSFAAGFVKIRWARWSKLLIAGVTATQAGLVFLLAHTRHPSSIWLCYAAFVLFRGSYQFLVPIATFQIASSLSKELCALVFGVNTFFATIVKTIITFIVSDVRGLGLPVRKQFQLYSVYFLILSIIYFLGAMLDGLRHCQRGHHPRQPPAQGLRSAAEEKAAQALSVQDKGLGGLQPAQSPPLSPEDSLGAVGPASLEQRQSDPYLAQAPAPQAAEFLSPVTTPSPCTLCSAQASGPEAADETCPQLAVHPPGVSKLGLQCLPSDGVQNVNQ

[4] = target: T4, α-FR (Mus musculus, UniProt P35846); experiment: Binding to α-FR relative to folic acid, L1210-FBP cells; conditions: L1210-FBP mouse tumor cells overexpressing α-FR; folic acid = 1
T4 construct: endogenous in cells; host or cells: mouse L1210-FBP cells

[5] = target: T5, α-FR (Homo sapiens, UniProt P15328); experiment: Binding to α-FR relative to folic acid, A431-FBP cells; conditions: human A431 cells transfected with α-FR; folic acid = 1
T5 construct: expressed in transfected cells; host or cells: A431 (human vulvar carcinoma)

[6] = tested on: KB cells; experiment: Inhibition of cell growth, KB cells; conditions: for fold increased IC50 in presence of folic acid, KB: IC50 + 1 μM FA vs without FA;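 as to all read-outs here: KB nasopharyngeal carcinoma cells express the α-folate receptor, and leucovorin at 20 nM was the folate source in the growth medium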
[7] = tested on: A431 cells; experiment: Inhibition of cell growth, A431 cells; conditions: for fold increased IC50 in presence of folic acid, A431: IC50 + 1 μM FA vs without FA
[8] = tested on: A431-FBP cells; experiment: Inhibition of cell growth, A431-FBP cells; conditions: for fold increased sensitivity compared with A431, A431-FBP: A431 IC50 vs A431-FBP IC50; for fold increased IC50 in presence of folic acid, A431-FBP: IC50 + 1 μM FA vs without FA
[9] = read-out: Inhibition of isolated L1210 TS, Kiapp
[10] = Homo sapiens, KB, read-out: Inhibition of cell growth, IC50, KB, 20 nM LV
[11] = Homo sapiens, A-431, read-out: Inhibition of cell growth, IC50, A431
[12] = Homo sapiens, read-out: Inhibition of cell growth, IC50, A431-FBP
[13] = read-out: Inhibition of cell growth, IC50, KB + 1 μM FA, 20 nM LV, + 1 μM folic acid
[14] = read-out: Inhibition of cell growth, IC50, A431 + 1 μM FA, 20 nM LV, + 1 μM folic acid
[15] = read-out: Inhibition of cell growth, IC50, A431-FBP + 1 μM FA, 20 nM LV, + 1 μM folic acid

T5 sequence (P15328 25-234): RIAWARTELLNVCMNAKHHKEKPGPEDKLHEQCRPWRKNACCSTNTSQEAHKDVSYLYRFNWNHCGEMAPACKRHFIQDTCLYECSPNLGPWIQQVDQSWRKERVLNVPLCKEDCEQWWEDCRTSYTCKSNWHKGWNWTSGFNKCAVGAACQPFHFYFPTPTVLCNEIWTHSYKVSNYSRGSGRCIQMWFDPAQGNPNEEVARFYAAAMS
T4 sequence (P35846 25-232): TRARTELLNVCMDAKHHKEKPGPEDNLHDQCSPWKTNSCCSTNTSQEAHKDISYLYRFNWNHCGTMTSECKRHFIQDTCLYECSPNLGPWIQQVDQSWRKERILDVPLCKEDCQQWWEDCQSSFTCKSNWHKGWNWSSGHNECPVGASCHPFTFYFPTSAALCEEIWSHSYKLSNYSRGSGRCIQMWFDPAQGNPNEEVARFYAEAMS
T1 sequence (P07607 whole entry): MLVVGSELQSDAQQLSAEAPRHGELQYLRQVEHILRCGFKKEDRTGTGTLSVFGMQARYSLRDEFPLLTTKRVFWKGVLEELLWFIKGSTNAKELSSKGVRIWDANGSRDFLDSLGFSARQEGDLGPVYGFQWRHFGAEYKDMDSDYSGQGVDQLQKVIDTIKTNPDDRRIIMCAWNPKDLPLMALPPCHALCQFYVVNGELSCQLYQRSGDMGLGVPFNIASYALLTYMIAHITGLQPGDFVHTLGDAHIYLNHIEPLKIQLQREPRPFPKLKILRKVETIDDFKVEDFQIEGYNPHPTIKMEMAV

SMILES | Ki [1, 9] [µM] | Ki [2] | Ki [3] | Inverse relative affinity for α-FR, L1210-FBP [4] | Inverse relative affinity for α-FR, A431-FBP [5] | fold increased IC50 in presence of folic acid, KB ([6]; 20 nM LV) | IC50 [6, 10] [µM] | fold increased IC50 in presence of folic acid, A431 ([7]; 20 nM LV) | IC50 [7, 11] [µM] | fold increased sensitivity compared with A431, A431-FBP ([8]; 20 nM LV) | fold increased IC50 in presence of folic acid, A431-FBP ([8]; 20 nM LV) | IC50 [8, 12] [µM] | IC50 [6, 13] [µM] | IC50 [7, 14] [µM] | IC50 [8, 15] [µM] | Ki ([1]; Inhibition of isolated L1210 TS, Kiapp) [µM] | IC50 ([6]; read-out: Inhibition of cell growth, IC50, KB, 20 nM LV) [µM]
C#CCN(c1ccc(C(=O)N[C@@H](CCC(=O)N[C@H](CCC(=O)O)C(=O)O)C(=O)O)cc1)C1CCc2cc3nc(C)[nH]c(=O)c3cc21 (mixture of isomers) [CB300638 (R, S), N-{-{4-[N-((6RS)-2-methyl-4-oxo-3,4,7,8-tetrahydro-6H-cyclopenta[g]quinazolin-6-yl)-N-(prop-2-ynyl)amino]benzoyl}-L-γ-glutamyl}-D-glutamic acid] | 0.00042 | 166 ± 34 µM | 279 ± 146 µM | 0.60 ± 0.06 | 0.59 ± 0.03 | (140) fold | 0.0053 ± 0.0025 | (1) fold | 1.4 ± 0.23 | (220) fold | (130) fold | 0.0065 ± 0.0001 | – | – | – | – | –
C#CCN(c1ccc(C(=O)N[C@@H](CCC(=O)N(C)C(CCC(=O)O)C(=O)O)C(=O)O)cc1)C1CCc2cc3nc(C)[nH]c(=O)c3cc21 (mixture of isomers) [CB300899 (R, S), N-methyl-N-{N-{4-[N-((6RS)-2-methyl-4-oxo-3,4,7,8-tetrahydro-6H-cyclopenta[g]quinazolin-6-yl)-N-(prop-2-ynyl)amino]benzoyl}-L-γ-glutamyl}-L-glutamic acid] | 0.00078 | > 250 µM | > 250 µM | 0.62 ± 0.04 | 0.64 ± 0.046 | (430) fold | 0.0051 ± 0.00031 | (1) fold | 2.2 ± 0.17 | (2400) fold | (2100) fold | 0.00092 ± 0.00012 | 2.2 ± 0.4 | 2.1 ± 0.058 | 1.9 ± 0.17 | – | –
C#CCN(c1ccc(C(=O)N[C@@H](CCC(=O)N(C)[C@@H](CCC(=O)O)C(=O)O)C(=O)O)cc1)C1CCc2cc3nc(CO)[nH]c(=O)c3cc21 (mixture of isomers) [CB300960 (R, S), N-{N-{4-[N-((6RS)-2-hydroxymethyl-4-oxo-3,4,7,8-tetrahydro-6H-cyclopenta[g]quinazolin-6-yl)-N-(prop-2-ynyl)amino]benzoyl}-L-γ-glutamyl}-N-methyl-L-glutamic acid] | – | – | – | – | – | – | – | (1) fold | 4.5 | – | (180) fold | 0.028 | – | – | – | – | –
C#CCN(Cc1ccc2nc(N)[nH]c(=O)c2c1)c1ccc(C(=O)N[C@@H](CCC(=O)O)C(=O)O)cc1 [CB3717, reference compound] | – | 46 ± 17 µM | – | – | – | – | – | – | 1.2 ± 0.63 | – | – | 0.26 ± 0.12 | – | 1.4 ± 0.56 | 0.45 ± 0.14 | – | –
C#CCN(Cc1cc2c(=O)[nH]c(C)nc2cc1C)c1ccc(C(=O)N[C@@H](CCC(=O)O)C(=O)O)cc1 [CB3900, reference compound] | 0.023 | 4.3 µM and 4.7 µM | 1.3 µM | 0.30 ± 0.07 | – | (2) fold | 0.13 ± 0.006 | (1) fold | 2.2 ± 0.26 | (2) fold | (1) fold | 1.4 ± 0.36 | 0.31 ± 0.04 | 2.6 ± 0.92 | 1.5 ± 0.29 | – | –
C#CCN(c1ccc(C(=O)N[C@@H](CCC(=O)N[C@H](CCC(=O)O)C(=O)O)C(=O)O)cc1)[C@H]1CCc2cc3nc(CO)[nH]c(=O)c3cc21 [CB300945 (S)] | – | – | – | 0.70 ± 0.015 | 0.69 ± 0.05 | (1800) fold | 0.0027 ± 0.0015 | (1) fold | 7 | (4700) fold | (4300) fold | 0.0015 | 4.8 ± 0.75 | 6.5 | 6.4 | 0.0019 | –
C#CCN(c1ccc(C(=O)N[C@@H](CCC(=O)O)C(=O)O)cc1)C1CCc2cc3nc(CO)[nH]c(=O)c3cc21 (stereo partly drawn) [CB300959 (R, S), reference compound] | 0.012 | – | – | 0.71 ± 0.012 | 0.57 ± 0.032 | (11) fold | 0.42 | (1) fold | 4.2 | (0.5) fold | (2) fold | 8.8 | – | 5.8 | 18 | – | 0.5
C#CCN(Cc1ccc2nc(C)[nH]c(=O)c2c1)c1ccc(C(=O)N[C@@H](CCC(=O)O)C(=O)O)cc1 [ICI 198583, reference compound] | – | 2.6 ± 0.06 µM | 1.2 µM and 1 µM | – | – | – | 0.002 ± 0.0004 | – | 0.024 ± 0.004 | – | – | 0.012 ± 0.005 | 0.02 ± 0.002 | 0.026 ± 0.0038 | 0.02 ± 0.0046 | – | –
Cc1nc2ccc(CN(C)c3ccc(C(=O)N[C@@H](CCC(=O)O)C(=O)O)s3)cc2c(=O)[nH]1 [Raltitrexed, reference compound] | 0.51 | 2.6 µM and 2.3 µM | – | – | – | – | 0.0011 ± 0.00071 | – | 0.0034 ± 0.0016 | – | – | 0.00079 ± 0.00036 | 0.0012 ± 0.00059 | 0.0036 ± 0.0016 | 0.0013 ± 0.0007 | – | –
